Assay results reported in the NIST ThermoML archive (doi:10.1016/j.tca.2011.07.005).
Where “and” joins values, the source holds several entries; their conditions need not be identical. Equal entries are not always repeated.

Experiments:
[1] = 101 kPa, Liquid; for speed of sound: Linear variable-path acoustic interferometer; for mass density: Pycnometric method
[2] = xn = mol fraction of the nth substance listed; conditions: 101 kPa, Liquid; for speed of sound: Linear variable-path acoustic interferometer; for mass density: Pycnometric method

Nc1ccccc1Cl [2-chlorobenzeneamine]
[1]
Conditions | mass density [kg/m3] | speed of sound [m/s]
303.15 K | 1202.7 | 1470
313.15 K | 1193 | 1438
323.15 K | 1183.3 | 1402

Nc1ccccc1Cl [2-chlorobenzeneamine] + C1CCOC1
[2]
Conditions | mass density, 303.15 K [kg/m3] | mass density, 313.15 K [kg/m3] | mass density, 323.15 K [kg/m3] | speed of sound, 303.15 K [m/s] | speed of sound, 313.15 K [m/s] | speed of sound, 323.15 K [m/s]
x2 = 0 | 1202.7 | 1193 | 1183.3 | 1470 | 1438 | 1402
x2 = 0.0695 | 1187.6 | 1177.4 | 1167.9 | 1461 | 1427 | 1395
x2 = 0.1543 | 1167.6 | 1157.7 | 1148.6 | 1450 | 1415 | 1383
x2 = 0.2423 | 1146 | 1136.3 | 1127 | 1436 | 1401 | 1369
x2 = 0.3275 | 1124.2 | 1114.5 | 1105 | 1422 | 1386 | 1353
x2 = 0.4213 | 1098.7 | 1088.7 | 1079.1 | 1404 | 1367 | 1333
x2 = 0.5259 | 1067.6 | 1057.4 | 1047.5 | 1383 | 1344 | 1308
x2 = 0.6325 | 1032 | 1021.8 | 1012.2 | 1359 | 1319 | 1281
x2 = 0.744 | 990.1 | 980.1 | 971 | 1331 | 1289 | 1250
x2 = 0.8663 | 938.4 | 928.5 | 920 | 1296 | 1252 | 1212

Nc1cccc(Cl)c1 [3-chlorobenzenamine]
[1]
Conditions | mass density | speed of sound
303.15 K | 1205.3 kg/m3 | 1517 m/s
313.15 K | 1196.1 kg/m3 and 1196 kg/m3 | 1484 m/s and 1486 m/s
323.15 K | 1186.6 kg/m3 | 1452 m/s

Nc1cccc(Cl)c1 [3-chlorobenzenamine] + C1CCOC1
[2]
Conditions | mass density, 303.15 K [kg/m3] | mass density, 313.15 K [kg/m3] | mass density, 323.15 K [kg/m3] | speed of sound, 303.15 K [m/s] | speed of sound, 313.15 K [m/s] | speed of sound, 323.15 K [m/s]
x2 = 0 | 1205.3 | 1196 | 1186.6 | 1517 | 1486 | 1452
x2 = 0.0728 | 1189.4 | 1180.6 | 1171.5 | 1500 | 1468 | 1436
x2 = 0.1321 | 1175.7 | 1167.1 | 1157.9 | 1487 | 1455 | 1424
x2 = 0.2389 | 1149.7 | 1140.6 | 1131.3 | 1465 | 1432 | 1400
x2 = 0.3272 | 1126.8 | 1117 | 1107.4 | 1446 | 1412 | 1380
x2 = 0.4116 | 1102.9 | 1093.2 | 1083.3 | 1427 | 1392 | 1360
x2 = 0.5161 | 1071.3 | 1061.4 | 1051.5 | 1403 | 1366 | 1333
x2 = 0.6297 | 1033.5 | 1023.9 | 1014.3 | 1373 | 1336 | 1301
x2 = 0.7419 | 992 | 982.7 | 973.7 | 1341 | 1302 | 1266
x2 = 0.8633 | 941.6 | 932.3 | 923.4 | 1302 | 1260 | 1222

Nc1cccc(Cl)c1 [3-chlorobenzenamine] + CC(C)OC(C)C
[2]
Conditions | mass density, 303.15 K [kg/m3] | mass density, 313.15 K [kg/m3] | mass density, 323.15 K [kg/m3] | speed of sound, 303.15 K [m/s] | speed of sound, 313.15 K [m/s] | speed of sound, 323.15 K [m/s]
x2 = 0 | 1205.3 | 1196.1 | 1186.6 | 1517 | 1484 | 1452
x2 = 0.0619 | 1171.2 | 1163.2 | 1154.7 | 1484 | 1451 | 1418
x2 = 0.1302 | 1134.1 | 1126.7 | 1118.2 | 1448 | 1414 | 1380
x2 = 0.2031 | 1095.7 | 1088.2 | 1079.3 | 1410 | 1374 | 1340
x2 = 0.2827 | 1055.1 | 1047.4 | 1038 | 1368 | 1331 | 1295
x2 = 0.3716 | 1011.3 | 1003.4 | 993.6 | 1321 | 1283 | 1246
x2 = 0.4676 | 965 | 957.2 | 947.6 | 1270 | 1230 | 1192
x2 = 0.5803 | 911.2 | 903.7 | 894.5 | 1209 | 1168 | 1129
x2 = 0.7235 | 842.6 | 835.3 | 826.7 | 1132 | 1089 | 1048
x2 = 0.8428 | 785.4 | 777.7 | 768.7 | 1066 | 1023 | 981

CC(C)OC(C)C [diisopropyl ether]
[1]
Conditions | mass density [kg/m3] | speed of sound [m/s]
303.15 K | 712.9 | 976
313.15 K | 702.9 | 932
323.15 K | 691.9 | 889

CC(C)OC(C)C [diisopropyl ether] + Nc1cccc(Cl)c1
[2], x1 = 1
Conditions | mass density [kg/m3] | speed of sound [m/s]
303.15 K | 712.9 | 976
313.15 K | 702.9 | 932
323.15 K | 691.9 | 889

C1CCOC1 [tetrahydrofuran]
[1]
Conditions | mass density [kg/m3] | speed of sound [m/s]
303.15 K | 876.9 | 1254
313.15 K | 865.7 | 1207
323.15 K | 854.8 | 1165

C1CCOC1 [tetrahydrofuran] + Nc1cccc(Cl)c1
[2], x1 = 1
Conditions | mass density [kg/m3] | speed of sound [m/s]
303.15 K | 876.9 | 1254
313.15 K | 865.7 | 1207
323.15 K | 854.8 | 1165

C1CCOC1 [tetrahydrofuran] + Nc1ccccc1Cl
[2], x1 = 1
Conditions | mass density [kg/m3] | speed of sound [m/s]
303.15 K | 876.9 | 1254
313.15 K | 865.7 | 1207
323.15 K | 854.8 | 1165
